In patent US12440496B2, “Natriuretic peptide receptor a agonists useful for the treatment of cardiometabolic diseases, kidney disease and diabetes” (Merck Sharp & Dohme LLC, priority 2019, dated 2025) one finds EC50 data, which are given here for 23 compounds.

The test addresses T1, hNPRA (Homo sapiens, UniProt P16066).
T1 construct: expressed in transfected cells
T1 sequence (P16066 33-1061): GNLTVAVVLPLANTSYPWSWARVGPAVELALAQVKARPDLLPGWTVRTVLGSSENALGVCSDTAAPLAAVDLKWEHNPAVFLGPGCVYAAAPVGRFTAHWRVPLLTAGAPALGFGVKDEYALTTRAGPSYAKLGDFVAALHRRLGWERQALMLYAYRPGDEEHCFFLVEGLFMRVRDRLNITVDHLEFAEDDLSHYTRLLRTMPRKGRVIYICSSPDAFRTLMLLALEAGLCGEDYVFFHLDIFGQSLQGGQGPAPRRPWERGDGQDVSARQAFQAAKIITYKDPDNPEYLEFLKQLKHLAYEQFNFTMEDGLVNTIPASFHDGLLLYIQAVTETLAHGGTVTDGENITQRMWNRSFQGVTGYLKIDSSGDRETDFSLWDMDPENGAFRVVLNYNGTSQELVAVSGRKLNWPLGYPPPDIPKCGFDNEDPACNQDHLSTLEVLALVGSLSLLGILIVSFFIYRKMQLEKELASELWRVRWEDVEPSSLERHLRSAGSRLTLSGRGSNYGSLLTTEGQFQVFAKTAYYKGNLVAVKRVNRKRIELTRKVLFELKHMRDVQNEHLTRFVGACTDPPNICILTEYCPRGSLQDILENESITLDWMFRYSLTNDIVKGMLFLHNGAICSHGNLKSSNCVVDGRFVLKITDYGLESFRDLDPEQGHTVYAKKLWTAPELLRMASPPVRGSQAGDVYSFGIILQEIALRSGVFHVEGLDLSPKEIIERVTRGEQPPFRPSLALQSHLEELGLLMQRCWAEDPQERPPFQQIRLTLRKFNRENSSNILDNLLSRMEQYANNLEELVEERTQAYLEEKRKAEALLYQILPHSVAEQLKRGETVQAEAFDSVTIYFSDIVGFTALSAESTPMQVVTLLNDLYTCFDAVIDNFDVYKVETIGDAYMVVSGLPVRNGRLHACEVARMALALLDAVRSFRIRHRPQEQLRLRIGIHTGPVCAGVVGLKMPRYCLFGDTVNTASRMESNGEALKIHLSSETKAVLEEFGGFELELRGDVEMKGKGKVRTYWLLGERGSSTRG
Description: NPRA Functional Cell Assay (cGMP HTRF, NPRA HEK JumpIn stable cells). Type of test: cell-based. The conditions noted are these: cGMP production, 1 hour at 37° C., 10-point dose response. A digest of the protocol:
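cGMP HTRF read-out after 1 hour compound treatment at 37° C. of human NPRA-expressing HEK JumpIn cells, 1500 cells/well, in buffer with phosphodiesterase inhibitors IBMX and RO20 (100 uM each). Signal converted to [cGMP] by calibration curve; EC50s fitted by 4-parameter logistic; 50 nM h-ANP as positive response.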
(In general: In TR-FRET formats the signal depends on donor and acceptor labels being close together.)
As usually defined, the EC50 is the concentration needed to bring the measured effect to its halfway point. A low value points to higher potency in that assay. As for `CC(C)(C)[C@H]1CCc2nc3sc(C(=O)N[C@H](CCN4CCC(O)CC4)c4ccc(-c5c[nH]c(=O)c(F)c5)cc4)nc3cc2C1` [Example 236, (S)-7-(tert-butyl)-N-((R)-1-(4-(5-fluoro-6-oxo-1,6-dihydropyridin-3-yl)phenyl)-3-(4-hydroxypiperidin-1-yl)propyl)-5,6,7,8-tetrahydrothiazolo[5,4-b]quinoline-2-carboxamide], a half-maximal response (EC50) required 140 nM.

The compound `CC(C)(C)[C@H]1CCc2nc3sc(C(=O)N[C@H](CCN4CCCCC4)c4ccc(-c5cnc(O)c(F)c5)cc4)cc3cc2C1` [Example 238, (S)-6-(tert-butyl)-N-((R)-1-(4-(5-fluoro-6-hydroxypyridin-3-yl)phenyl)-3-(piperidin-1-yl)propyl)-5,6,7,8-tetrahydrothieno[2,3-b]quinoline-2-carboxamide] gave a concentration giving a half-maximal response (EC50) of 235 nM.

For `Cc1cc(-c2ccc([C@@H](CCN3CCCCC3)NC(=O)c3cc4cc5c(nc4s3)CC[C@H](C(C)(C)C)C5)cc2)cnc1O` [Example 239, (6S)-6-tert-butyl-N-{(1R)-1-[4-(6-hydroxy-5-methylpyridin-3-yl)phenyl]-3-piperidin-1-ylpropyl}-5,6,7,8-tetrahydrothieno[2,3-b]quinoline-2-carboxamide], the EC50 turned out to be 1400 nM.

Take `Cc1nc(O)ccc1-c1ccc([C@@H](CCN2CCCCC2)NC(=O)c2cc3cc4c(nc3s2)CC[C@H](C(C)(C)C)C4)cc1` [Example 240, (6S)-6-tert-butyl-N-{(1R)-1-[4-(6-hydroxy-2-methylpyridin-3-yl)phenyl]-3-piperidin-1-ylpropyl}-5,6,7,8-tetrahydrothieno[2,3-b]quinoline-2-carboxamide]: it took 1660 nM to reach a half-maximal effect (EC50).

As to `CC(C)(C)[C@H]1CCc2nc3sc(C(=O)N[C@H](CCN4CCCCC4)c4ccc(-c5cnc(O)c(N)c5)cc4)cc3cc2C1` [Example 241, (6S)-N-{(1R)-1-[4-(5-amino-6-hydroxypyridin-3-yl)phenyl]-3-piperidin-1-ylpropyl}-6-tert-butyl-5,6,7,8-tetrahydrothieno[2,3-b]quinoline-2-carboxamide], a half-maximal response (EC50) required 1730 nM.

`CC(C)(C)[C@H]1CCc2nc3sc(C(=O)NC(CCN4CCCCC4)c4ccccc4)cc3cc2C1` (stereo partly drawn) [Example 242, (6S)-6-tert-butyl-N-(1-phenyl-3-piperidin-1-ylpropyl)-5,6,7,8-tetrahydrothieno[2,3-b]quinoline-2-carboxamide] had an EC50 of 1870 nM.

With `CC(C)(C)[C@H]1CCc2nc3sc(C(=O)NC(CCN4CCOCC4)c4ccccc4)cc3cc2C1` (stereo partly drawn) [Example 243, (6S)-6-tert-butyl-N-(3-morpholin-4-yl-1-phenylpropyl)-5,6,7,8-tetrahydrothieno[2,3-b]quinoline-2-carboxamide], a half-maximal response (EC50) required 6320 nM.

Consider `CCN(CC)CCC(NC(=O)c1cc2cc3c(nc2s1)CC[C@H](C(C)(C)C)C3)c1ccccc1` (stereo partly drawn) [Example 244, (6S)-6-tert-butyl-N-[3-(diethylamino)-1-phenylpropyl]-5,6,7,8-tetrahydrothieno[2,3-b]quinoline-2-carboxamide], for which the EC50 was determined as 2200 nM.

`CC(C)(C)[C@H]1CCc2nc3sc(C(=O)NC(CCN4CCNCC4)c4ccccc4)cc3cc2C1` (stereo partly drawn) [Example 245, (6S)-6-tert-butyl-N-(1-phenyl-3-piperazin-1-ylpropyl)-5,6,7,8-tetrahydrothieno[2,3-b]quinoline-2-carboxamide] displayed a concentration for a half-maximal effect (EC50) of 6320 nM.

Compound `CC(C)(C)[C@H]1CCc2nc3sc(C(=O)N[C@H](CCNC4CCOCC4)c4ccccc4)cc3cc2C1` [Example 248, (6S)-6-tert-butyl-N-[(1R)-1-phenyl-3-(tetrahydro-2H-pyran-4-ylamino)propyl]-5,6,7,8-tetrahydrothieno[2,3-b]quinoline-2-carboxamide] registered an EC50 of 6320 nM.

In turn, `CC(C)(C)[C@H]1CCc2nc3sc(C(=O)N[C@H](CCN4CCC(O)CC4)c4ccccc4)cc3cc2C1` [Example 250, (6S)-6-tert-butyl-N-[(1R)-3-(4-hydroxypiperidin-1-yl)-1-phenylpropyl]-5,6,7,8-tetrahydrothieno[2,3-b]quinoline-2-carboxamide] gave an EC50 of 632 nM.

In turn, `CC(C)(C)[C@H]1CCc2nc3sc(C(=O)N[C@H](CCN4CCCC(O)C4)c4ccccc4)cc3cc2C1` (stereo partly drawn) [Example 251, (6S)-6-tert-butyl-N-[(1R)-3-(3-hydroxypiperidin-1-yl)-1-phenylpropyl]-5,6,7,8-tetrahydrothieno[2,3-b]quinoline-2-carboxamide] displayed a concentration giving a half-maximal response (EC50) of 632 nM.

As for `CC(C)(C)[C@H]1CCc2nc3sc(C(=O)N[C@H](CCN4CCC(F)CC4)c4ccccc4)cc3cc2C1` [Example 252, (6S)-6-tert-butyl-N-[(1R)-3-(4-fluoropiperidin-1-yl)-1-phenylpropyl]-5,6,7,8-tetrahydrothieno[2,3-b]quinoline-2-carboxamide], a half-maximal response (EC50) required 6300 nM.

For the compound `CC(C)(C)[C@H]1CCc2nc3sc(C(=O)N[C@H](CCN4CCCC4)c4ccccc4)cc3cc2C1` [Example 253, (6S)-6-tert-butyl-N-[(1R)-1-phenyl-3-pyrrolidin-1-ylpropyl]-5,6,7,8-tetrahydrothieno[2,3-b]quinoline-2-carboxamide], the response was half-maximal at 3220 nM (EC50).

`CC(C)(C)[C@H]1CCc2nc3sc(C(=O)N[C@H](CCN4CCC(CO)CC4)c4ccccc4)cc3cc2C1` [Example 255, (6S)-6-tert-butyl-N-{(1R)-3-[4-(hydroxymethyl)piperidin-1-yl]-1-phenylpropyl}-5,6,7,8-tetrahydrothieno[2,3-b]quinoline-2-carboxamide]: the EC50 was 2930 nM.

`CC(C)(C)[C@H]1CCc2nc3sc(C(=O)N[C@H](CCN4CC(O)C4)c4ccccc4)cc3cc2C1` [Example 256, (6S)-6-tert-butyl-N-[(1R)-3-(3-hydroxyazetidin-1-yl)-1-phenylpropyl]-5,6,7,8-tetrahydrothieno[2,3-b]quinoline-2-carboxamide] had an EC50 of 3100 nM.

Take `CC(C)(C)[C@H]1CCc2nc3sc(C(=O)N[C@H](CCN4CCC[C@H]4CO)c4ccccc4)cc3cc2C1` [Example 257, (6S)-6-tert-butyl-N-{(1R)-3-[(2S)-2-(hydroxymethyl)pyrrolidin-1-yl]-1-phenylpropyl}-5,6,7,8-tetrahydrothieno[2,3-b]quinoline-2-carboxamide]: the EC50 turned out to be 886 nM.

`CC(C)(C)[C@H]1CCc2nc3sc(C(=O)N[C@H](CCN4CCC(C(=O)O)CC4)c4ccccc4)cc3cc2C1` [Example 258, 1-[(3R)-3-({[(6S)-6-tert-butyl-5,6,7,8-tetrahydrothieno[2,3-b]quinolin-2-yl]carbonyl}amino)-3-phenylpropyl]piperidine-4-carboxylic acid] yielded an EC50 of 2080 nM.

With `CC(C)(C)[C@H]1CCc2nc3sc(C(=O)N[C@H](CCN4CCC(CO)C4)c4ccccc4)cc3cc2C1` (stereo partly drawn) [Example 259, (6S)-6-tert-butyl-N-{(1R)-3-[3-(hydroxymethyl)pyrrolidin-1-yl]-1-phenylpropyl}-5,6,7,8-tetrahydrothieno[2,3-b]quinoline-2-carboxamide], the EC50 was 1820 nM.

`CC(C)(C)[C@H]1CCc2nc3sc(C(=O)N[C@H](CCN[C@H]4C[C@H](O)C4)c4ccccc4)cc3cc2C1` [Example 260, (6S)-6-tert-butyl-N-{(1R)-3-[(trans-3-hydroxycyclobutyl)amino]-1-phenylpropyl}-5,6,7,8-tetrahydrothieno[2,3-b]quinoline-2-carboxamide]: the EC50 came out at 2000 nM.

On to `CC(C)(C)[C@H]1CCc2nc3sc(C(=O)N[C@H](CCN4CCC(O)C4)c4ccccc4)cc3cc2C1` (stereo partly drawn) [Example 261, (6S)-6-tert-butyl-N-[(1R)-3-(3-hydroxypyrrolidin-1-yl)-1-phenylpropyl]-5,6,7,8-tetrahydrothieno[2,3-b]quinoline-2-carboxamide], for which a half-maximal response (EC50) required 6320 nM.

`CC(C)(C)[C@H]1CCc2nc3sc(C(=O)N[C@H](CCN4CCC[C@@H]4CO)c4ccccc4)cc3cc2C1` [Example 262, (6S)-6-tert-butyl-N-{(1R)-3-[(2R)-2-(hydroxymethyl)pyrrolidin-1-yl]-1-phenylpropyl}-5,6,7,8-tetrahydrothieno[2,3-b]quinoline-2-carboxamide] yielded an EC50 of 6320 nM.

Compound `CC(C)(C)[C@H]1CCc2nc3sc(C(=O)N[C@H](CCN4CCC(O)CC4)c4ccc(-c5ccnnc5)nc4)nc3cc2C1` [Example 263, (S)-7-(tert-butyl)-N-((R)-3-(4-hydroxypiperidin-1-yl)-1-(6-(pyridazin-4-yl)pyridin-3-yl)propyl)-5,6,7,8-tetrahydrothiazolo[5,4-b]quinoline-2-carboxamide] showed an EC50 of 129 nM.
